These results are taken from patent US7338958B2, “Sulfoximine-substituted pyrimidines as CDK-and/or VEGF inhibitors, their production and use as pharmaceutical agents” (Schering AG, priority 2003, dated 2008).

Assay [1] deals with T1, VEGF receptor tyrosine kinase-2 (Homo sapiens, UniProt P35968).
T1 construct: GST; made in house; host or cells: baculovirus-infected insect cells (Sf9)
The assay can be described thus: VEGF Receptor-2 Kinase Assay. The conditions noted are these: poly-(Glu4Tyr) substrate, 33P-ATP, 10 minutes at 22° C.; read-out: VEGF-R2 IC50. It counts as biochemical. The procedure: VEGF Receptor-2 Kinase Assay
Recombinant VEGF receptor tyrosine kinase-2 was purified as a GST fusion protein from baculovirus-infected insect cells (Sf9). Poly-(Glu4Tyr), which was used as a kinase substrate, was purchased by the Sigma Company.
VEGF receptor tyrosine kinase (90 ng/measuring point) was incubated for 10 minutes at 22° C. in the presence of various concentrations of test substances (0 μm, as well as within the range of 0.001-30 μm) in 30 μl of assay buffer [40 mmol of Tris/HCl, […], 10 mmol of MgCl2, 1 mmol of MnCl2, 3 μmol of Na ortho-vanadate, 1.0 mmol of dithiothreitol, 8 μmol of adenosine trisphosphate (ATP), 27 μg/measuring point of poly-(Glu4Tyr), 0.2 μCi/measuring point of 33P-gamma ATP, 1% dimethyl sulfoxide]. The reaction was stopped by adding EDTA solution (250 mmol, pH 7.0, 10 μl/measuring point).
(§1) From each reaction batch, 10 μl was applied to P30 filter strips (Wallac Company), and non-incorporated 33P-ATP was removed by subjecting the filter strips to three washing cycles for 10 minutes each in 0.5% phosphoric acid. After the filter strips were dried for one hour at 70° C., the filter strips were covered with scintillator strips (MeltiLex™ A, Wallac Company) and baked for one hour at 90° C. The amount of incorporated 33P (substrate phosphorylation) was determined by scintillation measurement in a gamma-radiation measuring device (Wallac).

The test system of assay [2] is MCF7, hormone-independent human breast cancer cells. The assay can be described thus: Proliferation assay, MCF7. The assay is classed as cell-based. The conditions noted are these: MCF7, 96 h, 4 days incubation, crystal violet. The source says: (§2) Cultivated human tumor cells (MCF7, hormone-independent human breast cancer cells, related to ATCC HTB22; NCI-H460, human non-small-cell lung cancer cells, ATCC HTB-177, HCT 116, human colon cancer cells, ATCC CCL-247; DU 145, hormone-independent human prostate cancer cells, ATCC HTB-81; MaTu-MDR, hormone-independent, multiple pharmaceutical agent-resistant human breast cancer cells, EPO-GmbH, Berlin) were flattened out at a density of about 5000 cells/measuring point, depending on the growth rate of the respective cells, in a 96-well multititer plate in 200 μl of the corresponding growth medium. After 24 hours, the cells of one plate (zero-point plate) were colored with crystal violet (see below), while the medium of the other plates was replaced by fresh culture medium (200 μl), to which the test substances were added in various concentrations (0 μm, as well as in the range of 0.01-30 μm; the final concentration of the solvent dimethyl sulfoxide was 0.5%). The cells were incubated for 4 days in the presence of test substances. The cell proliferation was determined by coloring the cells with crystal violet: the cells were fixed by adding 20 μl/measuring point of an 11% glutaric aldehyde solution for 15 minutes at room temperature. After three washing cycles of the fixed cells with water, the plates were dried at room temperature. The cells were colored by adding 100 μl/measuring point of a 0.1% crystal violet solution (the pH was set at 3 by adding acetic acid). After three washing cycles of the colored cells with water, the plates were dried at room temperature. The dye was dissolved by adding 100 μl/measuring point of a 10% acetic acid solution. The extinction was determined by photometry at a wavelength of 595 nm. The change of cell growth, in percent, was calculated by normalization of the measured values to the extinction values of the zero-point plate (=0%) and the extinction of the untreated (0 μm) cells (=100%).

Another assay deals with T2, CDK1/CycB (Homo sapiens, UniProt P06493).
T2 construct: GST; purchased ProQinase GmbH, Freiburg; host or cells: baculovirus-infected insect cells (Sf9)
T2 sequence (P06493 whole entry): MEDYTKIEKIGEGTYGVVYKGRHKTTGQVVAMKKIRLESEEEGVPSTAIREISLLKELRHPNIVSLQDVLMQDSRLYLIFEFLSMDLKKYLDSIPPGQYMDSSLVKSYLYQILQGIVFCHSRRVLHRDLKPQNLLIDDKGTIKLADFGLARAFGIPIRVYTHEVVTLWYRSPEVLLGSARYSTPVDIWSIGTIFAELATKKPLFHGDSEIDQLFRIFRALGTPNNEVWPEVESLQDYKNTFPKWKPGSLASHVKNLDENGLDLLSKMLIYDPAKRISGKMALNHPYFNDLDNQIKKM
T2 sequence (P14635 whole entry partner): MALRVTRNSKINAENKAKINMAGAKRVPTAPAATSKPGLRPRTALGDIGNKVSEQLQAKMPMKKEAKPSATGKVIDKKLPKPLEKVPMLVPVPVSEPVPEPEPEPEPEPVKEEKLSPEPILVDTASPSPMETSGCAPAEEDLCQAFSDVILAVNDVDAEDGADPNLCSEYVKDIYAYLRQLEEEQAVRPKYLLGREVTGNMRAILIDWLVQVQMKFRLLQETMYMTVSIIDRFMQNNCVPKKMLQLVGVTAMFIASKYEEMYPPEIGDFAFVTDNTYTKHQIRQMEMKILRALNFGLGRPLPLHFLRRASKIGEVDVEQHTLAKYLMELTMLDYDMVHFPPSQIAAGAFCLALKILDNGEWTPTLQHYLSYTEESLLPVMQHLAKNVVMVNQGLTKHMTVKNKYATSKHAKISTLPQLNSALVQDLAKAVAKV
The assay can be described thus: CDK1/CycB Kinase Assay. The note with it: histone IIIS substrate, 33P-ATP, 15 minutes at 22° C. The assay is classed as biochemical. The procedure:
Recombinant CDK1- and CycB-GST-fusion proteins, purified from baculovirus-infected insect cells (Sf9), were purchased from ProQinase GmbH, Freiburg. Histone IIIS, used as a kinase substrate, is available commercially from the Sigma Company.
The reaction was stopped by adding EDTA solution (250 mmol, pH 8.0, 14 μl/measuring point).
as §1

In a further assay the target is T3, CDK2/CycE (Homo sapiens, UniProt P24941).
T3 construct: GST; purchased ProQinase GmbH, Freiburg; host or cells: baculovirus-infected insect cells (Sf9)
The assay can be described thus: CDK2/CycE Kinase Assay. It counts as biochemical. The note with it: histone IIIS substrate, 33P-ATP, 15 minutes at 22° C. The procedure:
Recombinant CDK2- and CycE-GST-fusion proteins, purified from baculovirus-infected insect cells (Sf9), were purchased by ProQinase GmbH, Freiburg. Histone IIIs, which was used as a kinase substrate, was purchased by the Sigma Company.
CDK2/CycE (50 ng/measuring point) was incubated for 15 minutes at 22° C. in the presence of various concentrations of test substances (0 μm, as well as within the range of 0.01-100 μm) in assay buffer [50 mmol of tris/HCl, pH 8.0, 10 mmol of MgCl2, 0.1 mmol of Na ortho-vanadate, 1.0 mmol of dithiothreitol, 0.5 μm of adenosine triphosphate (ATP), 10 μg/measuring point of histone IIIS, 0.2 μCi/measuring point of ^33P-gamma ATP, 0.05% NP40, 12.5% dimethyl sulfoxide]. The reaction was stopped by adding EDTA solution (250 mmol, pH 8.0, 14 μl/measuring point).
From each reaction batch, 10 μl was applied to P30 filter strips (Wallac Company), and non-incorporated ^33P-ATP was removed by subjecting the filter strips to three washing cycles for 10 minutes each in 0.5% phosphoric acid. After the filter strips were dried for one hour at 70° C., the filter strips were covered with scintillator strips (MeltiLex™ A, Wallac Company) and baked for one hour at 90° C. The amount of incorporated ^33P (substrate phosphorylation) was determined by scintillation measurement in a gamma-radiation measuring device (Wallac).

The test system of assay [3] is DU 145, hormone-independent human prostate cancer cells. The assay can be described thus: Proliferation assay, DU145. It counts as cell-based. The conditions noted are these: DU-145, 96 h, 4 days incubation, crystal violet.
Text: as §2

Where only a bound is given, the exact number is not on record here.

T1 sequence (P35968 20-1356): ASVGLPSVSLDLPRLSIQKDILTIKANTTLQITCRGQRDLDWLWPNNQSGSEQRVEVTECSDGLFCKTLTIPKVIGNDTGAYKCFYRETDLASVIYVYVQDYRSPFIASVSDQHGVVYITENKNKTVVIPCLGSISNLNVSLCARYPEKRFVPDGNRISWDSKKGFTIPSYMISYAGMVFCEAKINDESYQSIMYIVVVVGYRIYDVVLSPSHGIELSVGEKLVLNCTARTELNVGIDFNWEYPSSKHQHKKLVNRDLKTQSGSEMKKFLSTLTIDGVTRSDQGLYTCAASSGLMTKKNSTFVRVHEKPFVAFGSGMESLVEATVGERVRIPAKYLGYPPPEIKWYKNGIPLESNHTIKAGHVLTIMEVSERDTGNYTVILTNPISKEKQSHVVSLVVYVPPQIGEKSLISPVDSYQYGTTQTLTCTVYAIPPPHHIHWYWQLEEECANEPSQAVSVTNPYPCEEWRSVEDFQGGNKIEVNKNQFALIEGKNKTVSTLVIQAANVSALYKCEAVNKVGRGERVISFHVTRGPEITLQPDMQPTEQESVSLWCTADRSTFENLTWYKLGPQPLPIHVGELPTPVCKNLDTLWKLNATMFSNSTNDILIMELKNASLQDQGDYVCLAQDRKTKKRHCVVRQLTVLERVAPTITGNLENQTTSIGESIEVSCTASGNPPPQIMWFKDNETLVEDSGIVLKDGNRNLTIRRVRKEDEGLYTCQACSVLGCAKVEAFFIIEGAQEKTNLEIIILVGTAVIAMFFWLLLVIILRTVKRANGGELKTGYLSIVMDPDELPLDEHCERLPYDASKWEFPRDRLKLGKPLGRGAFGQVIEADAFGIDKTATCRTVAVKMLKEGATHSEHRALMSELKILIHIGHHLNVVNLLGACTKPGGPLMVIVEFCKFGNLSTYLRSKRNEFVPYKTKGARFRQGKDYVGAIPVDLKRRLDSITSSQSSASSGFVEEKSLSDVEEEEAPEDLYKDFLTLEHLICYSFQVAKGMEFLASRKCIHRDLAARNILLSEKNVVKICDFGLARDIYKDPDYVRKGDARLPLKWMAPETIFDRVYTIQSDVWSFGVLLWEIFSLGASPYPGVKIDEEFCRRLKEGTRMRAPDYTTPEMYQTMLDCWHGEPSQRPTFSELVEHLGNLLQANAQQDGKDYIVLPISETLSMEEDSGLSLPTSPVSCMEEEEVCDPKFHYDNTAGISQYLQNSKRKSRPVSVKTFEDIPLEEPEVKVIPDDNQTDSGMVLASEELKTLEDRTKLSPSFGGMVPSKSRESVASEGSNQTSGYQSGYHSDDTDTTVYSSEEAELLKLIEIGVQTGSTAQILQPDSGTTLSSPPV

With `Cc1cc(Nc2ncc(Br)c(N[C@H](C)C(C)(C)O)n2)ccc1S(C)(=N)=O` (mixture of isomers) [Example 1.59, (RS)-S-[4-({5-bromo-4-[(R)-(2-hydroxy-1,2-dimethylpropyl)amino]pyrimidin-2-yl}amino)-2-methylphenyl]-S-methyl sulfoximide], the IC50 in assay [1] amounted to 48 nM.
Turning to `Cc1cc(Nc2ncc(Br)c(N[C@H](C)C(C)(C)O)n2)ccc1S(C)(=N)=O` (mixture of isomers) [Example 1.57, (RS)-S-[4-({5-bromo-4-[(R)-(2-hydroxy-1,2-dimethylpropyl)amino]pyrimidin-2-yl}amino)-2-methylphenyl]-S-methyl sulfoximide], the IC50 in assay [1] was 66 nM; in assay [2], less than 100 nM.
In turn, `CCS(=N)(=O)c1ccc(Nc2ncc(Br)c(N[C@H](C)[C@@H](C)O)n2)cc1` (mixture of isomers) [Example 1.53, (RS)-S-[4-({5-bromo-4-[(1R,2R)-(2-hydroxy-1-methylpropyl)amino]pyrimidin-2-yl}amino)phenyl]-S-ethyl sulfoximide] yielded an IC50 at CDK1/CycB of 11 nM.
Take `CC(O)CSc1nc(Nc2ccc(S(C)(=N)=O)cc2)ncc1Br` (racemic) [Example 3.4, (RS)-S-[4-({5-bromo-4-[(RS)-(2-hydroxy-propyl)sulfanyl]pyrimidin-2-yl}amino)phenyl]-S-methyl sulfoximide]: the IC50 worked out at 72 nM against CDK1/CycB and 1000 nM in assay [2].
Take `CC(C)(O)CSc1nc(Nc2ccc(S(C)(=N)=O)cc2)ncc1Br` (racemic) [Example 3.9, (RS)-S-[4-({5-bromo-4-[(2-hydroxy-2-methyl-propyl)sulfanyl]pyrimidin-2-yl}amino)phenyl]-S-methyl sulfoximide]: the half-maximal inhibitory concentration (IC50) came to 8 nM against CDK2/CycE, 55 nM against CDK1/CycB and 1000 nM in assay [2].
For `COc1cc(Nc2ncc(Br)c(N[C@H](C)[C@@H](C)O)n2)ccc1S(C)(=N)=O` (single isomer, unassigned) [Example 1.25], the IC50 in assay [2] is less than 100 nM.
Consider `C[C@@H](O)[C@@H](C)Oc1nc(Nc2ccc(S(=N)(=O)CCO)cc2)ncc1Br` (mixture of isomers) [Example 1.21, (RS)-S-[4-({5-bromo-4-[(1R,2R)-2-hydroxy-1-methyl-propoxy]pyrimidin-2-yl}amino)phenyl]-S-(2-hydroxyethyl)sulfoximide], for which the figures for the IC50 (against CDK1/CycB; in assay [2]) were 5 nM and less than 100 nM, respectively.
`COC[C@@H](Nc1nc(Nc2ccc(S(C)(=N)=O)cc2)ncc1Br)[C@@H](C)O` (mixture of isomers) [Example 1.47, (RS)-S-{4-[(5-bromo-4-{[(1R,2R)-2-hydroxy-1-(methoxymethyl)-propyl]amino}pyrimidin-2-yl)amino]phenyl}-S-methyl sulfoximide] had an IC50 against CDK1/CycB of 27 nM.
In the case of `CN=S(C)(=O)c1ccc(Nc2ncc(Br)c(N[C@H](C)[C@@H](C)O)n2)cc1` (mixture of isomers) [Example 1.30, (RS)-S-[4-({5-bromo-4-[(1R,2R)-(2-hydroxy-1-methylpropyl)amino]pyrimidin-2-yl}amino)phenyl]-N,S-dimethyl-sulfoximide], the results for the IC50 at CDK2/CycE and at CDK1/CycB were 6 nM and 15 nM, respectively.
`CCOC(=O)N=S(=O)(CC)c1ccc(Nc2ncc(Br)c(N[C@H](COC)[C@@H](C)O)n2)cc1` (mixture of isomers) [Example 1.33, (RS)-S-{4-[(5-bromo-4-{[(1R,2R)-2-hydroxy-1-(methoxymethyl)propyl]amino}pyrimidin-2-yl)amino]phenyl}-N-(ethoxycarbonyl)-S-ethyl sulfoximide]: the figures for the IC50 (in assay [1]; on CDK1/CycB; in assay [2]) were 450 nM, 200 nM and 1000 nM, respectively.
Turning to `CN=S(C)(=O)c1ccc(Nc2ncc(Br)c(N[C@H](C)[C@@H](C)O)n2)cc1` (mixture of isomers) [Example 1.29, (RS)-S-[4-({5-bromo-4-[(1R,2R)-(2-hydroxy-1-methylpropyl)amino]pyrimidin-2-yl}amino)phenyl]-N,S-dimethyl-sulfoximide], the results for the IC50 at CDK2/CycE and against CDK1/CycB were 4 nM and 7 nM, respectively.
`C[C@@H](O)[C@@H](C)Nc1nc(Nc2ccc(S(C)(=N)=O)cc2)ncc1Br` (mixture of isomers) [Example 1.43, (RS)-S-[4-({5-bromo-4-[(1R,2R)-(2-hydroxy-1-methylpropyl)amino]pyrimidin-2-yl}amino)phenyl]-S-methyl sulfoximide]: in assay [2], the IC50 is less than 100 nM.
`COC[C@@H](Nc1nc(Nc2ccc(S(C)(=N)=O)cc2)ncc1Br)[C@@H](C)O` (mixture of isomers) [Example 1.46, (RS)-S-{4-[(5-bromo-4-{[(1R,2R)-2-hydroxy-1-(methoxymethyl)-propyl]amino}pyrimidin-2-yl)amino]phenyl}-S-methyl sulfoximide]: the IC50 stood at 4 nM at CDK2/CycE and 11 nM against CDK1/CycB.
Consider `Cc1cc(Nc2ncc(Br)c(N[C@H](C)C(C)(C)O)n2)ccc1S(C)(=N)=O` (mixture of isomers) [Example 1.58, (RS)-S-[4-({5-bromo-4-[(R)-(2-hydroxy-1,2-dimethylpropyl)amino]pyrimidin-2-yl}amino)-2-methylphenyl]-S-methyl sulfoximide], for which the IC50 in assay [1] stood at 45 nM.
On to `COc1cc(Nc2ncc(Br)c(N[C@H](C)[C@@H](C)O)n2)ccc1S(C)(=N)=O` (single isomer, unassigned) [Example 1.26], for which the IC50 in assay [3] amounted to 70 nM.
As for `CCS(=N)(=O)c1ccc(Nc2ncc(Br)c(N[C@H](COC)[C@@H](C)O)n2)cc1` (mixture of isomers) [Example 1.49, (RS)-S-{4-[(5-bromo-4-{[(1R,2R)-2-hydroxy-1-(methoxymethyl)-propyl]amino}pyrimidin-2-yl)amino]phenyl}-S-ethyl sulfoximide], in assay [1], the IC50 came out at 470 nM.
On the same count and under the same terms, under `CCS(=N)(=O)c1ccc(Nc2ncc(Br)c(N[C@H](COC)[C@@H](C)O)n2)cc1` (mixture of isomers) [Example 1.50, (RS)-S-{4-[(5-bromo-4-{[(1R,2R)-2-hydroxy-1-(methoxymethyl)-propyl]amino}pyrimidin-2-yl)amino]phenyl}-S-ethyl sulfoximide] stands 230 nM.

The term IC50 denotes the concentration that inhibits the measured activity by half.
